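Method: 48-hour compound exposure of cells in 96-well plates, five concentrations, linear interpolation of endpoints. TGI denotes the concentration required for complete inhibition of growth.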 Some results are limits rather than exact numbers.

Holding throughout (assay): DTP human tumour cell line panel, 48 h
Test [1] deals with HT29 colon.
The test system of test [2] is MDA-MB-435.
Test [3] deals with NCI/ADR-RES ovarian.
For test [4], the system named is SNB-75 CNS.
In test [5] the test system is SW-620 colon.
Test [6] relates to NCI-H23 lung.
In test [7] the test system is CCRF-CEM leukemia.
The test system of test [8] is IGROV1 ovarian.
In test [9] the test system is SN12C renal.
For test [10], the system named is HL-60(TB) leukemia.
Test [11] concerns LOX IMVI melanoma.
The subject of test [12] is COLO 205 colon.
In test [13] the test system is MOLT-4 leukemia.
For test [14], the system named is A549 NSCLC.
The test system of test [15] is NCI-H226 lung.
For test [16], the system named is 786-0 renal.
Test [17] has as its system MALME-3M melanoma.
Test [18] concerns PC-3 prostate.
For test [19], the system named is NCI-H522 lung.
The test system of test [20] is MDA-N.

By TGI is commonly meant the concentration at which net growth stops. A higher TGI goes with lower sensitivity of the cells. For the compound `Cc1ccc(-c2nc(C)c(C(=O)Nc3ccc(Cl)cc3)s2)cc1`, the TGI in test [1] is > 100 µM; in test [2], > 100 µM; in test [3], > 100 µM; in test [4], 28.3 µM; in [5], > 100 µM; in [6], 83.6 µM. Moreover, the concentration for total growth inhibition (TGI) in test [7] was > 100 µM; in test [8], 82.4 µM; in test [9], > 100 µM; in test [10] it was > 100 µM; in test [11] it was > 100 µM; in [12], > 100 µM. In addition, the TGI was > 100 µM in test [13]; > 100 µM in test [14]; 48.5 µM in test [15]; 29.3 µM in test [16]; > 100 µM in test [17]; > 100 µM in test [18]. Also, the TGI in test [19] and in test [20] was > 100 µM in each case.

`C=CCN1CCC(OC(=O)C(O)(C#CC)C2CCCC2)CC1` (stereo not given): the TGI in test [1], in test [2], in test [3], in [4], in test [5] and in [6] was > 100 µM throughout. In addition, the TGI in test [7], in test [8], in [9], in test [10], in [11] and in test [12] was > 100 µM each time. The TGI in test [13], in test [14], in [15], in test [16], in test [17] and in [18] was > 100 µM throughout. Moreover, the TGI in [19] and in test [20] was > 100 µM throughout.

As to `NC(Cc1ccc(S(=O)(=O)O)cc1)C(=O)NC(CCCCNC(=O)NCCCCC(NC(=O)C(N)Cc1ccc(S(=O)(=O)O)cc1)C(=O)NC(Cc1ccc(S(=O)(=O)O)cc1)C(=O)O)C(=O)NC(Cc1ccc(S(=O)(=O)O)cc1)C(=O)O` (stereo not given), the concentration for total growth inhibition (TGI) in test [1], in test [2], in test [3], in test [4], in test [5] and in test [6] was > 100 µM each time. Besides, the TGI in [7], in [8], in [9], in [10], in test [11] and in test [12] was > 100 µM each time. Besides, the TGI in test [13], in test [14], in [15], in test [16], in [17] and in [18] was > 100 µM throughout. Also, the TGI in test [19] and in test [20] was > 100 µM each time.

With `CC(=N\N)/C(C)=N/N=C(C)/C(C)=N/N=C(C)/C(C)=N/N=C(C)/C(C)=N/N`, the TGI in [1], in test [2], in test [3], in [4], in test [5] and in [6] was > 100 µM throughout. Further, the TGI in test [7], in test [8], in [9], in test [10], in test [11] and in test [12] was > 100 µM in each case. In addition, the TGI in [13], in test [14], in test [15], in test [16], in test [17] and in test [18] was > 100 µM in each case. In addition, the TGI in test [19] and in test [20] was > 100 µM each time.

Consider `CCOC(=O)c1c2c3c(cccc3[nH]c1=O)Sc1ncccc1-2`, for which the TGI in test [1] was 94.9 µM; in test [2], > 100 µM; in test [3] it was > 100 µM; in test [4], > 100 µM; in test [5], > 100 µM; in [6], 86.3 µM. In addition, the TGI was > 100 µM in test [7]; 61 µM in test [8]; > 100 µM in test [9]; 86.4 µM in test [10]; > 100 µM in test [11]; > 100 µM in [12]. For the same compound, the TGI in [13] is 68.5 µM; in [14], 85.3 µM; in [15], 66.5 µM; in [16] it was > 100 µM; in test [17], > 100 µM; in test [18], 74.6 µM. In addition, the figures for the TGI in test [19] and in [20] were 83.8 µM and > 100 µM, respectively.

As to `O=C(O)c1ccccc1NC(c1ccccc1)c1ccc2cccnc2c1O` (stereo not given), the TGI in test [1] was > 100 µM; in [2], > 66.9 µM; in test [3] it was > 49.3 µM; in [4] it was > 86.7 µM; in test [5], 46.4 µM; in [6] it was > 53 µM. In addition, the TGI in [7] was > 22.7 µM; in test [8], > 100 µM; in [9] it was > 51.4 µM; in test [10], 8.22 µM; in test [11], 43.2 µM; in test [12], 80.9 µM. In addition, the TGI in test [13] was 34 µM; in test [14], > 100 µM; in test [15] it was > 28.5 µM; in test [16] it was 20.1 µM; in test [17], > 56.4 µM; in [18] it was > 88.8 µM. For the same compound, the total growth inhibition concentration (TGI) is 23.3 µM in test [19] and > 100 µM in test [20].

As to `CCOC(=O)c1ccc(Nc2cnc3cc(C(F)(F)F)ccc3n2)cc1`, the TGI in test [1], in [2], in test [3], in test [4], in [5] and in test [6] was > 100 µM throughout. Further, the TGI in test [7], in test [8], in [9], in test [10], in [11] and in test [12] was > 100 µM throughout. Besides, the TGI in [13], in [14], in test [15], in test [16], in [17] and in [18] was > 100 µM each time. The TGI in [19] and in test [20] was > 100 µM in each case.

Take `CCC(C#N)(c1ccccc1)N(CCc1ccccc1)C(=O)c1ccccc1` (stereo not given): the TGI was > 100 µM in test [1]; > 100 µM in test [2]; > 100 µM in test [3]; 78.7 µM in test [4]; > 100 µM in [5]; > 100 µM in test [6]. In addition, the TGI in test [7], in [8], in test [9], in [10], in test [11] and in test [12] was > 100 µM in each case. For the same compound, the TGI in test [13] is > 100 µM; in test [14], > 100 µM; in test [15] it was 39.7 µM; in test [16], 37.5 µM; in test [17], > 100 µM; in [18], > 100 µM. Moreover, the TGI in [19] and in [20] was > 100 µM in each case.

For `O=c1cc(NCCCCCO)[nH]c(=O)[nH]1`, the TGI in test [1], in [2], in [3], in test [4], in test [5] and in [6] was > 100 µM in each case. In addition, the TGI in [7], in [8], in [9], in test [10], in test [11] and in [12] was > 100 µM each time. Besides, the TGI in test [13], in test [14], in test [15], in [16], in test [17] and in [18] was > 100 µM in each case. The TGI in test [19] and in test [20] was > 100 µM throughout.

For the compound `CO/N=C(\C)c1ccc(Nc2c3ccccc3nc3occc23)cc1`, the TGI worked out at 2.16 µM in test [1]; 0.224 µM in test [2]; 4.75 µM in [3]; 3.29 µM in test [4]; 18.9 µM in test [5]; 26.4 µM in [6]. The TGI amounted to 35.9 µM in test [7]; 12.4 µM in test [8]; 22.6 µM in test [9]; 2.23 µM in [10]; 18.2 µM in [11]; 6.37 µM in [12]. Besides, the TGI in test [13] came out at 33.5 µM; in [14] it was 20 µM; in test [15] it was 28.5 µM; in test [16] it was 6.67 µM; in test [17] it was 0.895 µM; in test [18], 49.3 µM. For the same compound, the TGI stood at 0.311 µM in test [19] and 0.379 µM in test [20].
